Measurements reported in ChEMBL document CHEMBL3885861, “Open TG-GATES”.

Organism: Rattus norvegicus
Assay: Open TG-GATES - Regimen: Single
Assay type: toxicity, organism-based, Sprague-Dawley
Parameters: regimen Single, gender Male, age 6 weeks
Conditions: in vivo, po, route gavage; for TG / TP / gamma-GTP / ALT / AST / CRE / Ca / Cl / DBIL / GLC / K / LDH / Na / PL / RALB / TBIL / TC: tissue Plasma; for KIDNEY_L / KIDNEY_R / KIDNEY_TOTAL: tissue Kidney; for LIVER: tissue Liver
[1] = 0 mg/kg, 24 h, dose level Control
[2] = 80 mg/kg, 3 h, tissue Blood, dose level Low
[3] = 80 mg/kg, 6 h, tissue Blood, dose level Low

Question: What does the source list for COc1ccc([C@@H]2Sc3ccccc3N(CCN(C)C)C(=O)[C@@H]2OC(C)=O)cc1 [DILTIAZEM]?
Answer: TG [1]: 84.2 mg/dL; TP [1]: 5.4 g/dL; gamma-GTP [1]: 1 IU/L; TERMINAL_BW (80 mg/kg, 3 h, dose level Low): 186.4 g; APTT [2]: 17.7 s; Bas [2]: 0.4%; Eos [2]: 0.2%; Fbg [2]: 282.2 mg/dL; Hb [2]: 12.8 g/dL; Ht [2]: 40%; Lym [2]: 70.8%; MCHC [2]: 32.1%; MCV [2]: 66.5 fL; Mono [2]: 3.4%; PT [2]: 14.7 s; Plat [2]: 124.6 x10_4/uL; RBC [2]: 601.8 x10_4/ul; WBC [2]: 115.4 x10_2/uL; KIDNEY_L (80 mg/kg, 3 h, dose level Low): 0.9 g; KIDNEY_R (80 mg/kg, 3 h, dose level Low): 0.8 g; KIDNEY_TOTAL (80 mg/kg, 3 h, dose level Low): 1.7 g; LIVER (80 mg/kg, 3 h, dose level Low): 8.4 g; ALT (80 mg/kg, 3 h, dose level Low): 50.8 IU/L; AST (80 mg/kg, 3 h, dose level Low): 85.6 IU/L; CRE (80 mg/kg, 3 h, dose level Low): 0.2 mg/dL; Ca (80 mg/kg, 3 h, dose level Low): 10.8 mg/dL; Cl (80 mg/kg, 3 h, dose level Low): 106.6 meq/L; DBIL (80 mg/kg, 3 h, dose level Low): 0.014 mg/dL; GLC (80 mg/kg, 3 h, dose level Low): 183.4 mg/dL; K (80 mg/kg, 3 h, dose level Low): 4.5 meq/L; LDH (80 mg/kg, 3 h, dose level Low): 74.8 IU/L; Na (80 mg/kg, 3 h, dose level Low): 142.2 meq/L; PL (80 mg/kg, 3 h, dose level Low): 134.8 mg/dL; RALB (80 mg/kg, 3 h, dose level Low): 2.5 g/dL; TBIL (80 mg/kg, 3 h, dose level Low): 0.032 mg/dL; TC (80 mg/kg, 3 h, dose level Low): 71.8 mg/dL; TG (80 mg/kg, 3 h, dose level Low): 60.2 mg/dL; TP (80 mg/kg, 3 h, dose level Low): 5.1 g/dL; gamma-GTP (80 mg/kg, 3 h, dose level Low): 1.2 IU/L; TERMINAL_BW (80 mg/kg, 6 h, dose level Low): 182.6 g; APTT [3]: 17 s; Bas [3]: 0%; Eos [3]: 0.8%; Fbg [3]: 314.8 mg/dL; Ht [3]: 40.5%; Lym [3]: 71.2%; MCHC [3]: 32.4%; MCV [3]: 67 fL; Mono [3]: 4.2%; PT [3]: 14.7 s; Plat [3]: 131.5 x10_4/uL; RBC [3]: 606 x10_4/ul; WBC [3]: 91.6 x10_2/uL; KIDNEY_L (80 mg/kg, 6 h, dose level Low): 0.8 g; KIDNEY_R (80 mg/kg, 6 h, dose level Low): 0.8 g; KIDNEY_TOTAL (80 mg/kg, 6 h, dose level Low): 1.6 g; LIVER (80 mg/kg, 6 h, dose level Low): 7.9 g; ALT (80 mg/kg, 6 h, dose level Low): 42.4 IU/L; AST (80 mg/kg, 6 h, dose level Low): 72.8 IU/L; CRE (80 mg/kg, 6 h, dose level Low): 0.2 mg/dL; Ca (80 mg/kg, 6 h, dose level Low): 11.1 mg/dL; Cl (80 mg/kg, 6 h, dose level Low): 106.8 meq/L; DBIL (80 mg/kg, 6 h, dose level Low): 0.014 mg/dL; GLC (80 mg/kg, 6 h, dose level Low): 176.8 mg/dL; K (80 mg/kg, 6 h, dose level Low): 4.1 meq/L; LDH (80 mg/kg, 6 h, dose level Low): 54 IU/L; Na (80 mg/kg, 6 h, dose level Low): 143.8 meq/L; PL (80 mg/kg, 6 h, dose level Low): 137.4 mg/dL; RALB (80 mg/kg, 6 h, dose level Low): 2.5 g/dL; TBIL (80 mg/kg, 6 h, dose level Low): 0.034 mg/dL; TC (80 mg/kg, 6 h, dose level Low): 79 mg/dL
